What was measured:
A375 cells = test: Assay 1: A375 cells treated with S1152, S1008 and compound, immunofluorescence (sc-365823) signal; format: cell-based; details: 1 μM S1152 + 0.5 μM S1008, one day
Method in brief: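 A375 cells treated one day with 1 μM S1152, 0.5 μM S1008 and compound dose ranges in DMEM/10% FCS, then fixed, permeabilised and immunostained. Green signal normalised to nuclear counterstain (ethidium-type or DAPI), log ratio fitted by four-parameter regression for EC50.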

OPM-2 = test: Assay 2: multiple myeloma cellular efficacy, PrestoBlue cell proliferation/survival; format: cell-based; details: Homo sapiens, 96 h, OPM-2 cells, 4 days
Experimental: Multiple Myeloma Cellular Efficacy:
10000 OPM-2 (ACC50; DSMZ) were plated into wells of a 384 well plate (Greiner 781090). Cells were treated for 4 days with a dose range of compound or vehicle. At the end of the experiment cells were stained directly with PrestoBlue (ThermoFisher Scietific; A13262) for 2 hours at 37° C. in a humidified incubator according to manufactor's instruction. To assess the relative cell number the PrestoBlue signal was measured using either a TecanM1000Pro reader or a Tecan Sparks reader following the manufactor's instructions. Background (no cells) values were subtracted and set in relation to the vehicle control. To assess the EC50 of each compound the relative fluorescence value was plotted against the compound concentration after log transformation. Data were fitted in a nonlinear manner with a variable slope (four parameters) using graphpad prism software. Cellular efficacy of compounds was evaluated in the multiple myeloma cell line OPM-2 using the cell proliferation/survival assay PrestoBlue. EC50 values are classified as indicated below.

**Q.** Which EC50 (A375 cells) does the source give for `COCC(=O)Nc1cccc(Nc2cc(-c3cccnc3)nc([C@@H]3CC[C@H](C)N(C(C)=O)C3)n2)c1` [Compound 00084, N-(3-((2-((3R,6S)-1-acetyl-6-methylpiperidin-3-yl)-6-(pyridin-3-yl)pyrimidin-4-yl)amino)phenyl)-2-methoxyacetamide] here?
**A.** < 200 nM

**Q.** What about the EC50 (OPM-2) of the same molecule?
**A.** 200 to 1000 nM

**Q.** For `CC(=O)Nc1cccc(Nc2cc(-c3cncc4c3ccn4C)nc([C@@H]3CC[C@H](C)N(C(C)=O)C3)n2)c1` [Compound 00085, N-(3-((2-((3R,6S)-1-acetyl-6-methylpiperidin-3-yl)-6-(1-methyl-1H-pyrrolo[2,3-c]pyridin-4-yl)pyrimidin-4-yl)amino)phenyl)acetamide], which EC50 (A375 cells) is on record?
**A.** < 200 nM

**Q.** And the EC50 (OPM-2)?
**A.** < 200 nM

**Q.** With `CC(=O)N1C[C@H](c2nc(Nc3cccc(N4CCC4=O)c3)cc(-c3cccnc3)n2)CC[C@@H]1C` [Compound 00087, 1-(3-((2-((3R,6S)-1-acetyl-6-methylpiperidin-3-yl)-6-(pyridin-3-yl)pyrimidin-4-yl)amino)phenyl)azetidin-2-one] as the molecule, how does the EC50 (A375 cells) read?
**A.** < 200 nM

**Q.** And the EC50 (OPM-2)?
**A.** 200 to 1000 nM

**Q.** Which EC50 (A375 cells) does the source give for `CC(=O)N1C[C@H](c2nc(Nc3cccc(N4CCOC4=O)c3)cc(-c3cccnc3)n2)CC[C@@H]1C` [Compound 00088, 3-(3-((2-((3R,6S)-1-acetyl-6-methylpiperidin-3-yl)-6-(pyridin-3-yl)pyrimidin-4-yl)amino)phenyl)oxazolidin-2-one] here?
**A.** < 200 nM

**Q.** What about the EC50 (OPM-2) of the same molecule?
**A.** 200 to 1000 nM

**Q.** Which results are given for `CC(=O)N1C[C@H](c2nc(Nc3cccc(NC(=O)C4CC4)c3)cc(-c3cccnc3)n2)CC[C@@H]1C` [Compound 00089, N-(3-((2-((3R,6S)-1-acetyl-6-methylpiperidin-3-yl)-6-(pyridin3-yl)pyrimidin-4-yl)amino)phenyl)-cyclopropanecarboxamide]?
**A.** EC50 (A375 cells): < 200 nM; EC50 (OPM-2): < 200 nM

**Q.** Which results are given for `COCCOc1cncc(-c2cc(Nc3cc(F)cc(-c4cnn(C)c4)c3)nc([C@@H]3CC[C@H](C)N(C(C)=O)C3)n2)c1` [Compound 00091, 1-((2S,5R)-5-(4-((3-fluoro-5-(1-methyl-1H-pyrazol-4-yl)phenyl)amino)-6-(5-(2-methoxyethoxy)pyridin-3-yl)pyrimidin-2-yl)-2-methylpiperidin-1-yl)ethan-1-one]?
**A.** EC50 (A375 cells): < 200 nM; EC50 (OPM-2): < 200 nM

**Q.** How did the EC50 (A375 cells) turn out when `CC(=O)N1C[C@H](c2nc(Nc3cc(F)cc(-c4cnn(C)c4)c3)cc(-c3cncc(OCCO)c3)n2)CC[C@@H]1C` [Compound 00093, 1-((2S,5R)-5-(4-((3-fluoro-5-(1-methyl-1H-pyrazol-4-yl)phenyl)amino)-6-(5-(2-hydroxyethoxy)pyridin-3-yl)pyrimidin-2-yl)-2-methylpiperidin-1-yl)ethan-1-one] was run?
**A.** < 200 nM

**Q.** And the EC50 (OPM-2)?
**A.** < 200 nM

**Q.** Which results are given for `COCCn1ccc2c(-c3cc(Nc4cccc(-c5cn(C)nn5)c4)nc([C@@H]4CC[C@H](C)N(C(C)=O)C4)n3)cncc21` [Compound 00094, 1-((2S,5R)-5-(4-(1-(2-methoxyethyl)-1H-pyrrolo[2,3-c]pyridin4-yl)-6-((3-(1-methyl-1H-1,2,3-triazol-4-yl)phenyl)amino)pyrimidin-2-yl)-2-methylpiperidin-1-yl)ethan1-one]?
**A.** EC50 (A375 cells): < 200 nM; EC50 (OPM-2): < 200 nM

**Q.** With `CC(=O)N1C[C@H](c2nc(Nc3ccnc(C)c3)cc(-c3cccnc3)n2)CC[C@@H]1C` [Compound 00095, 1-((2S,5R)-2-methyl-5-(4-((2-methylpyridin-4-yl)amino)-6-(pyridin-3-yl)pyrimidin-2-yl)piperidin-1-yl)ethan-1-one] as the molecule, how does the EC50 (A375 cells) read?
**A.** < 200 nM

**Q.** What about the EC50 (OPM-2) of the same molecule?
**A.** < 200 nM

**Q.** Which EC50 (A375 cells) does the source give for `CC(=O)N1C[C@H](c2nc(Nc3ccnc(C)c3)cc(-c3cc(C)cs3)n2)CC[C@@H]1C` [Compound 00105, 1-((2S,5R)-2-methyl-5-(4-((2-methylpyridin-4-yl)amino)-6-(4-methylthiophen-2-yl)pyrimidin-2-yl)piperidin-1-yl)ethan-1-one] here?
**A.** < 200 nM

**Q.** And the EC50 (OPM-2)?
**A.** 200 to 1000 nM

**Q.** What does the source list for `CC(=O)N1C[C@H](c2nc(Nc3cncc(C(F)F)c3)cc(-c3cccnc3)n2)CC[C@@H]1C` [Compound 00107, 1-((2S,5R)-5-(4-((5-(difluoromethyl)pyridin-3-yl)amino)-6-(pyridin-3-yl)pyrimidin-2-yl)-2-methylpiperidin-1-yl)ethan-1-one]?
**A.** EC50 (A375 cells): 200 to 1000 nM; EC50 (OPM-2): 200 to 1000 nM

**Q.** Which EC50 (A375 cells) does the source give for `CC(=O)N1C[C@H](c2nc(Nc3ccnc(C)c3)cc(-c3cncc(OC(F)F)c3)n2)CC[C@@H]1C` [Compound 00111, 1-((2S,5R)-5-(4-(5-(difluoromethoxy)pyridin3-yl)-6-((2-methylpyridin4-yl)amino)pyrimidin-2-yl)-2-methylpiperidin-1-yl)ethan-1-one] here?
**A.** < 200 nM

**Q.** And the EC50 (OPM-2)?
**A.** 200 to 1000 nM

**Q.** Which EC50 (A375 cells) does the source give for `CC(=O)N1C[C@H](c2nc(Nc3ccnc(C)c3)cc(-c3cncc4c3cnn4C)n2)CC[C@@H]1C` [Compound 00112, 1-((2S,5R)-2-methyl-5-(4-(1-methyl-1/7-pyrazolo[3,4-c]pyridin-4-yl)-6-((2-methylpyridin-4-yl)amino)pyrimidin-2-yl)piperidin-1-yl)ethan-1-one] here?
**A.** < 200 nM

**Q.** What about the EC50 (OPM-2) of the same molecule?
**A.** < 200 nM

**Q.** Which results are given for `CC(=O)N1C[C@H](c2nc(Nc3ccnc(C)c3)cc(-c3cncc(N4CC(C(=O)N(C)C)C4)c3)n2)CC[C@@H]1C` [Compound 00113, 1-(5-(2-((3R,6S)-1-acetyl-6-methylpiperidin-3-yl)-6-((2-methylpyridin-4-yl)amino)pyrimidin-4-yl)pyridin-3-yl)-N,N-dimethylazetidine-3-carboxamide]?
**A.** EC50 (A375 cells): 1000 to 10000 nM; EC50 (OPM-2): 1000 to 10000 nM

**Q.** Which EC50 (A375 cells) does the source give for `CC(=O)N1C[C@H](c2nc(Nc3ccnc(C)c3)cc(-c3cncc(N4C[C@@H]5C[C@H]4CO5)c3)n2)CC[C@@H]1C` [Compound 00115, 1-((2S,5R)-5-(4-(5-((1S,4S)-2-oxa-5-azabicyclo[2.2.1]heptan-5-yl)pyridin-3-yl)-6-((2-methylpyridin-4-yl)amino)pyrimidin-2-yl)-2-methylpiperidin-1-yl)ethan-1-one] here?
**A.** < 200 nM

**Q.** What about the EC50 (OPM-2) of the same molecule?
**A.** 200 to 1000 nM

**Q.** For `CC(=O)N1C[C@H](c2nc(Nc3ccnc(C)c3)cc(-c3cncc4c3ccn4C)n2)CC[C@@H]1C` [Compound 00116, 1-((2S,5R)-2-methyl-5-(4-(1-methyl-1/7-pyrrolo[2,3-c]pyridin4-yl)-6-((2-methylpyridin-4-yl)amino)pyrimidin-2-yl)piperidin1-yl)ethan-1-one], which EC50 (A375 cells) is on record?
**A.** < 200 nM

**Q.** What about the EC50 (OPM-2) of the same molecule?
**A.** < 200 nM

**Q.** For `CC(=O)N1C[C@H](c2nc(Nc3ccnc(F)c3)cc(-c3cncc(O)c3)n2)CC[C@@H]1C` [Compound 00117, 1-((2S,5R)-5-(4-((2-fluoropyridin-4-yl)amino)-6-(5-hydroxypyridin-3-yl)pyrimidin-2-yl)-2-methylpiperidin-1-yl)ethan-1-one], which EC50 (A375 cells) is on record?
**A.** 1000 to 10000 nM

**Q.** And the EC50 (OPM-2)?
**A.** 1000 to 10000 nM

**Q.** Which EC50 (A375 cells) does the source give for `CC(=O)N1C[C@H](c2nc(Nc3ccnc(F)c3)cc(-c3cncc4c3ccn4C)n2)CC[C@@H]1C` [Compound 00118, 1-((2S,5R)-5-(4-((2-fluoropyridin-4-yl)amino)-6-(1-methyl-1H-pyrrolo[2,3-c]pyridin-4-yl)pyrimidin-2-yl)-2-methylpiperidin-1-yl)ethan-1-one] here?
**A.** < 200 nM

**Q.** And the EC50 (OPM-2)?
**A.** < 200 nM

**Q.** For `COCCOc1cncc(-c2cc(Nc3ccnc(F)c3)nc([C@@H]3CC[C@H](C)N(C(C)=O)C3)n2)c1` [Compound 00119, 1-((2S,5R)-5-(4-((2-fluoropyridin-4-yl)amino)-6-(5-(2-methoxyethoxy)pyridin-3-yl)pyrimidin-2-yl)-2-methylpiperidin-1-yl)ethan-1-one], which EC50 (A375 cells) is on record?
**A.** < 200 nM

**Q.** And the EC50 (OPM-2)?
**A.** < 200 nM

From patent US12478624B2, “Heterocyclic derivatives, pharmaceutical compositions and their use in the treatment or amelioration of cancer” (Tolremo Therapeutics AG, priority 2019, dated 2025)
